Experimental data published in patent publication US11738029B2, “Rucaparib particles and uses thereof” (CRITITECH, INC., priority 2021, dated 2023).

Legend:
Format in all cases: physicochemical
[1] = Solubility testing, shake-flask method; conditions: 24 hours at 20-25° C.
Description: The solubility was determined by using a shake-flask method. The drug was added in excess to each solution prepared in duplicate. The vials were placed on a mechanical shaker for 24 hours at 20-25° C. After shaking, solution was removed and filtered through a 0.45 μm PTFE syringe filter and analyzed by UV/Visible spectrophotometry.

[2] = Particle size distribution (PSD) by laser diffraction, Malvern Mastersizer 3000; conditions: dispersed in ethyl acetate
Description: (§1) • Particle Size Distribution (PSD) by Laser Diffraction • Imaging by Scanning Electron Microscopy (SEM) • Specific Surface Area (SSA) determination by BET Sorptometry • Crystalline/amorphous phase determination by Powder X-ray Diffraction (PXRD) • Bulk density analysis by modified USP <616>Bulk Density of Powders Method I
Particle size analyses were conducted on a Malvern Mastersizer™ 3000 using the Hydro MV™ dispersion unit. A non-validated general PSD method/dispersant method was used to analyze the rucaparib samples. The sample preparation procedure performed was as follows: • Weigh 10 to 20 mg of rucaparib into a 30-mL vial, add 20 mL of ethyl acetate. Disperse the sample by vortexing then sonicating the suspension in an ultrasonic bath for 1 minute. Then transfer the sample suspension to the Malvern Hydro MV™ dispersion unit to obtain obscuration between 5 and 15%.
Particle size distributions can be viewed in Table 1.

[3] = Bulk density analysis by modified USP <616> Bulk Density of Powders Method I (bulk and tapped)
From the text: As used herein, the bulk density (not tapped) of a particle is the ratio of the mass to the volume (including the interparticulate void volume) of an untapped powder sample.
As used herein, the tapped density of a particle is obtained by mechanically tapping a graduated cylinder containing the sample until little further volume change is observed.
as §1

[4] = Specific surface area (SSA) by BET sorptometry
Description: As used herein, the “specific surface area” is the total surface area of the rucaparib particle per unit of rucaparib mass as measured by the Brunauer-Emmett-Teller (“BET”) isotherm (i.e.: the BET SSA). As will be understood by those of skill in the art, the SSA is determined on a per gram basis and takes into account both agglomerated and non-agglomerated rucaparib particles in the composition. The BET specific surface area test procedure is a compendial method included in both the United States Pharmaceopeia and the European Pharmaceopeia. The rucaparib particles have a specific surface area (SSA) of at least 12 m^2/g. In various further embodiments, the rucaparib particles have a SSA of at least 13 m^2/g, 14 m^2/g, 15 m^2/g, 16 m^2/g, 17 m^2/g, 18 m^2/g, 19 m^2/g, 20 m^2/g, 21 m^2/g, 22 m^2/g, 23 m^2/g, 24 m^2/g, 25 m^2/g, 26 m^2/g, 27 m^2/g, 28 m^2/g, 29 m^2/g, or 30 m^2/g.
as §1
Specific Surface Area Surface area analyses were conducted on a Quantachrome NOVAtouch™ LX2 BET Sorptometer. Surface area results can be found in Table 1.

Concentration of Rucaparib Found ([1]; 25% ethanol): 115 µg/mL
Concentration of Rucaparib Found ([1]; 25% methanol): 68.8 µg/mL
Concentration of Rucaparib Found ([1]; 40% ethanol): 394 µg/mL
Concentration of Rucaparib Found ([1]; 40% methanol): 739 µg/mL
PSD - Masterisizer Dv-10 [2]: 2.96 μ
PSD - Masterisizer Dv-50 [2]: 13.6 μ
PSD - Masterisizer Dv-90 [2]: 26.8 μ
Bulk Density ([3]; not tapped): 0.332 gm/cm^3
Tapped Density ([3]; tapped): 0.427 gm/cm^3
Surface Area ([4]; BET): 6.59 m^2/gm
specific surface area measurement ([4]; material used in dissolution testing): 6.59 m2/g
Compound: CNCc1ccc(-c2[nH]c3cc(F)cc4c3c2CCNC4=O)cc1 [Rucaparib, (8-fluoro-2-{4-[(methylamino)methyl]phenyl}-1,3,4,5-tetrahydro-6H-azepino[5,4,3-cd]indol-6-one ((1S,4R)-7,7-dimethyl-2-oxobicyclo[2.2.1]hept-1-yl)]
